Experimental data: PMC6112376, “Comprehensive Analyses and Prioritization of Tox21 10K Chemicals Affecting Mitochondrial Function by in-Depth Mechanistic Studies” (Environmental Health Perspectives, 2018); call rule not given here
Where two headings read alike, the source gives them in different places.

How the values were obtained:
[1] = tested on: HepG2 cells; conditions: cited from earlier work
[2] = tested on: rat primary hepatocytes; experiment: MMP assay in rat primary hepatocytes; conditions: for IC50: Rattus norvegicus, Hepatocyte, read-out: MMP assays IC50 (µM) Rat Hepatocytes; for MMP assays efficacy (%) Rat Hepatocytes / MMP assays IC50 (µM) Rat Hepatocytes: mean ± SD of three experiments
[3] = tested on: HepG2 cells; experiment: cells; conditions: Homo sapiens; for IC50: HepG2, read-out: MMP assays IC50 (µM) HepG2; for Emax: HepG2, read-out: MMP assays efficacy (%) HepG2
[4] = read-out: MMP assays IC50 (µM) qHTS-HepG2
[5] = read-out: MMP assays IC50 (µM), qHTS-HepG2

SMILES | MMP assays efficacy (%) qHTS-HepG2 [1] | IC50 [1, 4] | IC50 [2] | IC50 [3] | Emax [3] | MMP assays efficacy (%) Rat Hepatocytes [2] | MMP assays IC50 (µM) Rat Hepatocytes [2] | IC50 [1, 5]
Oc1ccc(C(c2ccc(O)cc2)(C(F)(F)F)C(F)(F)F)cc1 [Bisphenol AF] | -114±10% | 5.44 ± 1.42 µM | 37.3 ± 6.7 µM | 5.01 µM | 102% | – | – | –
CCOc1ccc(/N=N/c2ccc(N)cc2N)cc1 [Ethoxazene] | -91±7% | 2.7 ± 1.13 µM | 4.96 ± 3.42 µM | 2.82 µM | 94% | -106±32% | – | –
CC(=O)Oc1ccc2c(c1)CC[C@@H]1[C@@H]2CC[C@]2(C)[C@@H](O)CC[C@@H]12 [Estradiol acetate] | -85±4% | 9.08 ± 0.59 µM | – | 17.3 µM | 95% | inactive | inactive | –
CCN(CC)c1ccc(N)cc1 [N,N-Diethylbenzene-1,4-diamine] | -103±16% | – | 31.6 µM | 7.94 µM | 118% | -105±29% | – | 49.9 ± 3.51 µM
N#CSCSc1nc2ccccc2s1 [2-(Thiocyanomethylthio)benzothiazole] | -85±16% | 33.1 ± 4.58 µM | 30.5 ± 26.4 µM | 56.2 µM | 73% | -136±65% | – | –
OCc1c2ccccc2cc2ccccc12 [Compound 9-Anthracenemethanol] | -104±23% | 34.5 ± 11.5 µM | 21.7 ± 15.7 µM | 19.9 µM | 88% | -68±25% | – | –
Cc1nnc2n1-c1sc(CCc3ccc(CC(C)C)cc3)cc1C(c1ccccc1Cl)=NC2C (centres unmarked) [Israpafant] | – | – | 23.5 ± 5.67 µM | 27.5 µM | 108% | -55±10% | – | 22 ± 1.49 µM
CN1C(=O)/C(=N\NC(N)=S)c2ccccc21 [Methisazone] | -96±7% | – | 21.5 ± 9.04 µM | 12.6 µM | 90% | -94±16% | – | 5.82 ± 1.38 µM
c1ccc(CCCc2ccncc2)cc1 [4-(3-Phenylpropyl)pyridine] | -63±19% | 16.6 ± 6.74 µM | 13 ± 6.83 µM | 14.1 µM | 46% | -82±23% | – | –
CCCCCCCCCCCCOC(=O)c1cc(O)c(O)c(O)c1 [Dodecyl gallate] | -99±8% | 4.75 ± 1.81 µM | 48.7 ± 8.3 µM | 7.94 µM | 100% | -65±17% | – | –
CC(O)(c1ccc(Cl)cc1)c1ccc(Cl)cc1 [Chlorfenethol] | -110±19% | 26.3 ± 7.53 µM | 18.9 ± 5.35 µM | 12.6 µM | 100% | -90±2% | – | –
CC(=O)Nc1ccc(S(=O)(=O)Nc2ccc([N+](=O)[O-])cc2)cc1 [Sulfanitran] | -54±11% | – | 19.5 ± 2.25 µM | 17.3 µM | 67% | -63±14% | – | 26.6 ± 8.77 µM
O=c1c2ccccc2[se]n1-c1ccccc1 [Ebselen] | -94±8% | 23.2 ± 0.93 µM | 21.4 ± 5.35 µM | 19.4 µM | 112% | -58±5% | – | –
Cc1ccc2c(c1[N+](=O)[O-])C(=O)c1ccccc1C2=O [Compound 2-Methyl-1-nitroanthraquinone] | -63±13% | 1.34 ± 0.15 µM | 16.9 ± 14.7 µM | 2.77 µM | 88% | -84±16% | – | –
Oc1ccc(Sc2ccc(O)cc2)cc1 [4,4'-Thiodiphenol] | -100±12% | 21.1 ± 2.7 µM | 24.7 ± 9.79 µM | 25.1 µM | 115% | -49±9% | – | –
COC(=O)C1=C(C)NC(C)=C(C(=O)OCCN2CCN(C(c3ccccc3)c3ccccc3)CC2)C1c1cccc([N+](=O)[O-])c1 (centres unmarked) [Manidipine] | -95±13% | – | 20.9 ± 5.06 µM | 27.5 µM | 98% | -40±8% | – | 12.2 ± 6.82 µM
CCc1oc2ccccc2c1C(=O)c1cc(I)c(O)c(I)c1 [Benziodarone] | -106±2% | 2.98 ± 0.63 µM | 1.76 ± 0.68 µM | 4.35 µM | 97% | -95±10% | – | –
CC(C)(C)c1ccc(O)c(C(C)(C)C)c1 [2,4-Di-tert-butylphenol] | -95±5% | 3.5 ± 0.73 µM | 24 ± 16.6 µM | 3.98 µM | 101% | -131±66% | – | –
Cc1c(Nc2ncccc2C(=O)O)cccc1C(F)(F)F [Flunixin meglumine] | -123±14% | – | 5.77 ± 4.59 µM | 7.4 µM | 83% | -107±11% | – | 9.02 µM

SMILES | MMP assays efficacy (%) qHTS-HepG2 [1] | IC50 [1, 4] | IC50 [2] | IC50 [3] | Emax [3] | MMP assays efficacy (%) Rat Hepatocytes [2] | MMP assays IC50 (µM) Rat Hepatocytes [2] | IC50 [1, 5]
CC(C)=CCOc1ccc(/C=C/C(=O)c2ccc(OCC=C(C)C)cc2OCC(=O)O)cc1 [Sofalcone] | -118±8% | – | 19.5 ± 2.25 µM | 17.3 µM | 92% | -65±23% | – | 24.6 ± 1.67 µM
Nc1ccc(N)c([N+](=O)[O-])c1 [2-Nitro-1,4-phenylenediamine] | -85±13% | 7.07 ± 6.53 µM | – | 12.6 µM | 87% | – | – | –
O=c1cc(-c2ccccc2)oc2cc(O)cc(O)c12 [Chrysin] | -103±9% | 5.05 ± 2.76 µM | 30.6 ± 28.4 µM | 7.08 µM | 105% | -78±36% | – | –
COc1ccc(/C=C/C(=O)c2ccc(OC)cc2OC)cc1 [Metochalcone] | -72±12% | – | 25.5 ± 18.2 µM | 39.8 µM | 119% | -82±19% | – | 18.2 ± 10.1 µM
CC(C)(c1ccc(O)cc1)c1ccc(O)cc1 [Bisphenol A] | -122±14% | 14 ± 6.29 µM | 37.6 ± 3.06 µM | 15.8 µM | 111% | -59±20% | – | –
Oc1cc(O)c(Cl)cc1Cl [4,6-Dichloro-1,3-benzenediol] | -100±10% | 9.55 ± 2.74 µM | 35.7 ± 5.79 µM | 15.8 µM | 108% | -37±3% | – | –
O=C(Nc1ccc(Cl)cc1)Nc1ccc(Cl)c(C(F)(F)F)c1 [Cloflucarban] | -113±9% | 0.6 µM | 0.58 ± 0.05 µM | 0.44 µM | 85% | -95±5% | – | –
CC(=O)Oc1cccc2c1C(=O)c1c(OC(C)=O)cc(C(=O)O)cc1C2=O [Diacerein] | -81±16% | 20.6 ± 8.26 µM | 14.2 ± 11.3 µM | 17.3 µM | 61% | -70±14% | – | –
Oc1ccc(OCc2ccccc2)cc1 [4-(Benzyloxyl)phenol] | -87±9% | 18.5 ± 1.51 µM | 9.04 ± 8.1 µM | 7.4 µM | 93% | -46±35% | – | –
O=[N+]([O-])c1ccc(O)c2ncccc12 [Nitroxoline] | -80±8% | – | 72.3 ± 39.1 µM | 19.9 µM | 94% | -69±54% | – | 9.22 ± 2.41 µM
CC(C)(C)c1ccc(OC(=O)c2ccccc2O)cc1 [4-tert-Butylphenyl salicylate] | -78±23% | 28.4 ± 3.64 µM | – | 35.5 µM | 90% | inactive | inactive | –
O=C(Nc1ccc(O)cc1)c1ccccc1O [Osalmid] | -96±3% | – | 30 ± 21.3 µM | 6.31 µM | 101% | -93±20% | – | 6.68 ± 0.77 µM
Cc1cc(O)c(Cl)c(C)c1Cl [2,4-Dichloro-3,5-dimethylphenol] | -104±10% | 5.88 ± 4.85 µM | – | 8.91 µM | 95% | inactive | inactive | –
O=C1c2ccccc2C(=O)N1SC(Cl)(Cl)Cl [Folpet] | -107±6% | – | 33.7 ± 20.2 µM | 14.1 µM | 100% | – | – | 8.25 ± 0.54 µM
Oc1ccc(/N=N/c2ccccc2)cc1 [p-Phenylazophenol] | -96±7% | – | – | 10 µM | 107% | inactive | inactive | 4.06 ± 1.23 µM
Cc1ccc2c(Br)cc(Br)c(O)c2n1 [Broquinaldol] | -114±44% | 26.6 ± 4 µM | 38.6 ± 34.6 µM | 12.6 µM | 114% | -87±93% | – | –
Cc1cc(/C=C/c2ccc3cc(N(C)C)ccc3[n+]2C)c(C)n1-c1ccccc1 [Pyrvinium pamoate] | -108±33% | – | – | 0.17 µM | 91% | – | – | 2.02 ± 1.2 µM
O=C1CN(/N=C/c2ccc([N+](=O)[O-])o2)C(=O)N1 [Nitrofurantoin] | -70±6% | – | – | – | 87% | – | – | 26.3 ± 6.35 µM
